Assay results taken from US4277465A, “Adjuvant for promoting absorption of therapeutically active substances through the digestive tract” (Kyoto Yakuhin Kogyo Kabushiki Kaisha, priority 1978, dated 1981).

Legend:
Assay type in all cases: in vivo
[1] = Rectal insulin suppositories (Recipes 21-34), glucose response; conditions: rectal suppository 6 I.U. insulin
Procedure: |Enamine derivative (I) | As indicated in | Table 12 […] The above components were used to prepare rectal suppositories in accordance with established pharmaceutical practice. The suppositories were administered to rabbits and dogs by rectal route. […] The test was conducted by the glucose oxidase method.

[2] = Rectal insulin suppositories (Recipes 35-41), glucose response; conditions: rectal suppository 6 I.U. insulin, enamine derivative 0.025g (5%)
Source text: These suppositories were rectally administered to rabbits (R, 2.5-3kg) and dogs (D, 12-13kg).

[3] = Rectal suppositories of CET-Na with enamine derivative, concentration in blood; conditions: dog
Procedure: These suppositories were rectally administered to dogs and the absorbabilities of the active components were investigated by measuring the blood concentrations.
(§1) The blood concentrations were measured in conformity with the biological assay method in the Antibiotic Standard of Japan. The cup method was employed with Sarcina lutea for penicillins and Bacillus subtilis for cephalosporins.

[4] = Rectal suppositories of AB-PC-Na with enamine derivative, concentration in blood; conditions: AB-PC-Na 75mg, dog
Procedure: as §1, with “These suppositories were rectally administered to dogs and the absorbabilities of the active components were investigated by measuring the blood concentrations. The blood” for “The blood”

[5] = CET-Na 500mg, enamine derivative 150mg (10%), base Witepsol H-15 850mg
[6] = CET-Na 75mg, enamine derivative 60mg (5%), base Witepsol H-15 1065mg
[7] = enamine derivative 60mg (5%), base Witepsol H-15 1065mg
[8] = enamine derivative 120mg (10%), base SB-W 1005mg
[9] = CET-Na 75mg, enamine derivative 60mg (5%), base SB-W 1065mg
[10] = enamine derivative 120mg (10%), base Witepsol H-15 1005mg

For CCOC(=O)C=C(C)NC(C)C(=O)[O-].[Na+] (racemic) [Compound 18, N-(1-Methyl-2-ethoxycarbonylvinyl)-DL-alanine sodium salt], the “Time course: Lowest level” value ([1]; rabbit, enamine derivative 1%) was 45 to 60 min, the “Time course: Onset” value ([1]; rabbit, enamine derivative 1%) was 30 min and the “Time course: Return to pre-medication level” value (shortened to “Time course: Return”) ([1]; rabbit, enamine derivative 1%) was 180 min.
For CCOC(=O)C=C(C)NC(C(=O)[O-])c1ccccc1.[Na+] (racemic) [Compound 24, N-(1-Methyl-2-ethoxycarbonylvinyl)-DL-phenylglycine sodium salt], the “Time course: Lowest level” value ([1]; rabbit, enamine derivative 1%) was 30 to 60 min, the “Time course: Onset” value ([1]; rabbit, enamine derivative 1%) was 15 min and the “Time course: Return” value ([1]; rabbit, enamine derivative 1%) was 180 min.
With CCOC(=O)C(C)OC(=O)C=C(C)NC(C)C(=O)[O-].[Na+] (racemic) [Compound 33, N-[1-Methyl-2-(1-ethoxycarbonyl-ethoxycarbonyl)vinyl]-DL-alanine sodium salt] the “Blood glucose response (6 I.U.)” value ([2]; rabbit 2.5-3kg) was 45-55%, the “Time course: Lowest level” value ([2]; rabbit 2.5-3kg) was 45 to 60 min and the “Time course: Onset” value ([2]; rabbit 2.5-3kg) was 15 min. The “Time course: Return” value ([2]; rabbit 2.5-3kg) was 150 min.
With CCOC(=O)C=C(C)N[C@@H](C)C(=O)[O-].[Na+] [Compound 19, N-(1-Methyl-2-ethoxycarbonylvinyl)-L-alanine sodium salt] the “Time course: Lowest level” value ([1]; rabbit, enamine derivative 1%) was 45 to 60 min, the “Time course: Onset” value ([1]; rabbit, enamine derivative 1%) was 30 min and the “Time course: Return” value ([1]; rabbit, enamine derivative 1%) was 180 min.
With CCOC(=O)C=C(C)N[C@H](C(=O)[O-])[C@@H](C)CC.[Na+] [Compound 20, N-(1-Methyl-2-ethoxycarbonylvinyl)-L-isoleucine sodium salt] the “Concentration in blood, 15 min.” value [3, 5] was 9000 ng/mL, the “Concentration in blood, 30 min.” value [3, 5] was 6230 ng/mL and the “Concentration in blood, 60 min.” value [3, 5] was 2910 ng/mL. The “Concentration in blood, 120 min.” value [3, 5] was 1000 ng/mL, the “Blood glucose response (6 I.U.)” value ([1]; dog, enamine derivative 2%) was 25-35% and the “Time course: Lowest level” value ([1]; dog, enamine derivative 2%) was 120 min. The “Time course: Onset” value ([1]; dog, enamine derivative 2%) was 60 to 90 min and the “Time course: Return” value ([1]; dog, enamine derivative 2%) was 180 to 240 min.
In the case of CCOC(=O)C=C(C)N[C@@H](CC(C)C)C(=O)[O-].[Na+] [Compound 21, N-(1-Methyl-2-ethoxycarbonylvinyl)-L-leucine sodium salt], the “Blood glucose response (6 I.U.)” value ([1]; dog, enamine derivative 1%) is reported as 35-45%, the “Time course: Lowest level” value ([1]; dog, enamine derivative 1%) is reported as 60 to 90 min and the “Time course: Onset” value ([1]; dog, enamine derivative 1%) is reported as 30 min. The “Time course: Return” value ([1]; dog, enamine derivative 1%) was 180 min.
In the case of CCOC(=O)C=C(C)N[C@H](C(=O)[O-])[C@@H](C)O.[Na+] [Compound 22, N-(1-Methyl-2-ethoxycarbonylvinyl)-L-threonine sodium salt], the “Concentration in blood, 15 min.” value [3, 6] is reported as 750 ng/mL, the “Concentration in blood, 30 min.” value [3, 6] is reported as 570 ng/mL and the “Concentration in blood, 60 min.” value [3, 6] is reported as 310 ng/mL. For the same compound, the “Time course: Lowest level” value ([1]; rabbit, enamine derivative 5%) was 45 to 75 min, the “Time course: Onset” value ([1]; rabbit, enamine derivative 5%) was 30 min and the “Time course: Return” value ([1]; rabbit, enamine derivative 5%) was 180 min.
In the case of CCOC(=O)C=C(C)N[C@@H](CCSC)C(=O)[O-].[Na+] [Compound 23, N-(1-Methyl-2-ethoxycarbonylvinyl)-L-methionine sodium salt], the “Concentration in blood, 15 min.” value [4, 7] is reported as 520 ng/mL, the “Concentration in blood, 30 min.” value [4, 7] is reported as 340 ng/mL and the “Concentration in blood, 60 min.” value [4, 7] is reported as 180 ng/mL. For the same compound, the “Concentration in blood, 120 min.” value [4, 7] was 80 ng/mL, the “Time course: Lowest level” value ([1]; rabbit, enamine derivative 10%) was 60 to 90 min and the “Time course: Onset” value ([1]; rabbit, enamine derivative 10%) was 30 min. For the same compound, the “Time course: Return” value ([1]; rabbit, enamine derivative 10%) was 180 min.
For CCOC(=O)C=C(C)N[C@@H](Cc1ccccc1)C(=O)[O-].[Na+] [Compound 25, N-(1-Methyl-2-ethoxycarbonylvinyl)-L-phenylalanine sodium salt], the “Time course: Lowest level” value ([1]; rabbit, enamine derivative 1%) was 45 to 90 min, the “Time course: Onset” value ([1]; rabbit, enamine derivative 1%) was 30 min and the “Time course: Return” value ([1]; rabbit, enamine derivative 1%) was 180 min.
With CCOC(=O)C=C(C)N[C@H](C(=O)[O-])C(C)C.[Na+] [Compound 26, N-(1-Methyl-2-ethoxycarbonylvinyl)-L-valine sodium salt] the “Time course: Lowest level” value ([1]; rabbit, enamine derivative 10%) was 60 to 90 min, the “Time course: Onset” value ([1]; rabbit, enamine derivative 10%) was 30 min and the “Time course: Return” value ([1]; rabbit, enamine derivative 10%) was 180 min.
For CCOC(=O)C=C(C)N[C@@H](Cc1c[nH]c2ccccc12)C(=O)[O-].[Na+] [Compound 27, α-N-(1-Methyl-2-ethoxycarbonylvinyl)-L-tryptophan sodium salt], the “Concentration in blood, 15 min.” value [4, 8] was 1600 ng/mL, the “Concentration in blood, 30 min.” value [4, 8] was 1500 ng/mL and the “Concentration in blood, 60 min.” value [4, 8] was 740 ng/mL. The “Concentration in blood, 120 min.” value [4, 8] was 400 ng/mL, the “Blood glucose response (6 I.U.)” value ([1]; rabbit, enamine derivative 10%) was 30% and the “Time course: Lowest level” value ([1]; rabbit, enamine derivative 10%) was 60 to 90 min. For the same compound, the “Time course: Onset” value ([1]; rabbit, enamine derivative 10%) was 30 min and the “Time course: Return” value ([1]; rabbit, enamine derivative 10%) was 180 min.
With CCOC(=O)C=C(C)N[C@@H](Cc1c[nH]cn1)C(=O)[O-].[Na+] [Compound 28, α-N-(1-Methyl-2-ethoxycarbonylvinyl)-L-histidine sodium salt] the “Blood glucose response (6 I.U.)” value ([1]; rabbit, enamine derivative 10%) was 30%, the “Time course: Lowest level” value ([1]; rabbit, enamine derivative 10%) was 60 to 90 min and the “Time course: Onset” value ([1]; rabbit, enamine derivative 10%) was 30 min. For the same compound, the “Time course: Return” value ([1]; rabbit, enamine derivative 10%) was 180 min.
For CCOC(=O)C=C(C)N[C@@H](CCCNC(=N)N)C(=O)O [Compound 29, α-N-(1-Methyl-2-ethoxycarbonylvinyl)-L-arginine], the “Concentration in blood, 15 min.” value [4, 8] was 500 ng/mL, the “Concentration in blood, 30 min.” value [4, 8] was 530 ng/mL and the “Concentration in blood, 60 min.” value [4, 8] was 610 ng/mL. The “Concentration in blood, 120 min.” value [4, 8] was 410 ng/mL, the “Blood glucose response (6 I.U.)” value ([1]; rabbit, enamine derivative 5%) was 40-50% and the “Time course: Lowest level” value ([1]; rabbit, enamine derivative 5%) was 60 to 90 min. The “Time course: Onset” value ([1]; rabbit, enamine derivative 5%) was 15 min and the “Time course: Return” value ([1]; rabbit, enamine derivative 5%) was 210 min.
In the case of CCOC(=O)C=C(C)NCCCCCCCCCCC(=O)[O-].[Na+] [Compound 30, N-(1-Methyl-2-ethoxycarbonylvinyl)-11-aminoundecanoic acid sodium salt], the “Time course: Lowest level” value ([1]; rabbit, enamine derivative 10%) is reported as 60 to 90 min, the “Time course: Onset” value ([1]; rabbit, enamine derivative 10%) is reported as 30 min and the “Time course: Return” value ([1]; rabbit, enamine derivative 10%) is reported as 180 min.
With CCOC(=O)C=C(C)N[C@@H](CO)C(=O)[O-].[Na+] [Compound 31, N-(1-Methyl-2-ethoxycarbonylvinyl)-L-serine sodium salt] the “Concentration in blood, 15 min.” value [4, 7] was 700 ng/mL, the “Concentration in blood, 30 min.” value [4, 7] was 380 ng/mL and the “Concentration in blood, 60 min.” value [4, 7] was 240 ng/mL. The “Concentration in blood, 120 min.” value [4, 7] was 90 ng/mL, the “Time course: Lowest level” value ([1]; rabbit, enamine derivative 10%) was 60 to 90 min and the “Time course: Onset” value ([1]; rabbit, enamine derivative 10%) was 30 min. The “Time course: Return” value ([1]; rabbit, enamine derivative 10%) was 180 min.
In the case of CCOC(=O)C(C)OC(=O)C=C(C)NCC(=O)[O-].[Na+] (centres unmarked) [Compound 32, N-[1-Methyl-2-(1-ethoxycarbonyl-ethoxycarbonyl)vinyl]glycine sodium salt], the “Concentration in blood, 15 min.” value [3, 9] is reported as 1500 ng/mL, the “Concentration in blood, 30 min.” value [3, 9] is reported as 1120 ng/mL and the “Concentration in blood, 60 min.” value [3, 9] is reported as 730 ng/mL. For the same compound, the “Concentration in blood, 120 min.” value [3, 9] was 400 ng/mL, the “Blood glucose response (6 I.U.)” value ([2]; dog 12-13kg) was 30-40% and the “Time course: Lowest level” value ([2]; dog 12-13kg) was 30 to 60 min. For the same compound, the “Time course: Onset” value ([2]; dog 12-13kg) was 30 min, the “Time course: Return” value ([2]; dog 12-13kg) was 120 min and the “Blood glucose response (6 I.U.)” value ([2]; rabbit 2.5-3kg) was 45-55%. For the same compound, the “Time course: Lowest level” value ([2]; rabbit 2.5-3kg) was 45 to 60 min, the “Time course: Onset” value ([2]; rabbit 2.5-3kg) was 15 min and the “Time course: Return” value ([2]; rabbit 2.5-3kg) was 150 min.
With CCOC(=O)C(C)OC(=O)C=C(C)N[C@@H](Cc1ccccc1)C(=O)[O-].[Na+] (stereo partly drawn) [Compound 34, N-[1-Methyl-2-(1-ethoxycarbonyl-ethoxycarbonyl)vinyl]-L-phenylalanine sodium salt] the “Concentration in blood, 15 min.” value [3, 6] was 1250 ng/mL, the “Concentration in blood, 30 min.” value [3, 6] was 830 ng/mL and the “Concentration in blood, 60 min.” value [3, 6] was 610 ng/mL. The “Concentration in blood, 120 min.” value [3, 6] was 390 ng/mL, the “Blood glucose response (6 I.U.)” value ([2]; rabbit 2.5-3kg) was 45-55% and the “Time course: Lowest level” value ([2]; rabbit 2.5-3kg) was 45 to 60 min. For the same compound, the “Time course: Onset” value ([2]; rabbit 2.5-3kg) was 15 min and the “Time course: Return” value ([2]; rabbit 2.5-3kg) was 150 min.
With CC(=CC(=O)OC(C)C(=O)O)N[C@@H](CCCNC(=N)N)C(=O)O (stereo partly drawn) [Compound 35, α-N-(1-Methyl-2-(1-carboxy-ethoxycarbonyl)vinyl]-L-arginine] the “Blood glucose response (6 I.U.)” value ([2]; rabbit 2.5-3kg) was 20-30%, the “Time course: Lowest level” value ([2]; rabbit 2.5-3kg) was 30 to 60 min and the “Time course: Onset” value ([2]; rabbit 2.5-3kg) was 15 min. The “Time course: Return” value ([2]; rabbit 2.5-3kg) was 120 min.
With CC(=CC(=O)NCCO)N[C@@H](Cc1ccccc1)C(=O)[O-].[Na+] [Compound 36, N-[1-Methyl-2-(2-hydroxyethylcarbamoyl)vinyl]-L-phenylalanine sodium salt] the “Concentration in blood, 15 min.” value [4, 10] was 1450 ng/mL, the “Concentration in blood, 30 min.” value [4, 10] was 1530 ng/mL and the “Concentration in blood, 60 min.” value [4, 10] was 800 ng/mL. The “Concentration in blood, 120 min.” value [4, 10] was 400 ng/mL, the “Blood glucose response (6 I.U.)” value ([2]; rabbit 2.5-3kg) was 20-30% and the “Time course: Lowest level” value ([2]; rabbit 2.5-3kg) was 30 to 60 min. The “Time course: Onset” value ([2]; rabbit 2.5-3kg) was 15 min and the “Time course: Return” value ([2]; rabbit 2.5-3kg) was 120 min.
With CC(=CC(=O)OCC(O)CO)NCC(=O)[O-].[Na+] (centres unmarked) [Compound 38, N-[1-Methyl-2-(2,3-dihydroxypropoxycarbonyl)vinyl]glycine sodium salt] the “Blood glucose response (6 I.U.)” value ([2]; rabbit 2.5-3kg) was 45-55%, the “Time course: Lowest level” value ([2]; rabbit 2.5-3kg) was 45 to 60 min and the “Time course: Onset” value ([2]; rabbit 2.5-3kg) was 15 min. The “Time course: Return” value ([2]; rabbit 2.5-3kg) was 150 min.
